Laboratory results taken from the NIST ThermoML archive (doi:10.1016/j.jct.2013.01.009).
Values joined by “and” are separate entries in the source; they are usually repeats but may differ in a detail not shown here. Equal values may be shown once.

Tests used:
[1] = Liquid, Closed cell (Static) method
[2] = molar heat capacity at constant pressure; conditions: 101.33 kPa, Liquid
[3] = molar enthalpy of vaporization or sublimation; conditions: 298.15 K; Liquid; Static calorimetry

CC1=CC(=O)[C@H]2C[C@@H]1C2(C)C [(-)-verbenone]
[1]
Conditions | vapor or sublimation pressure
273.65 K | 0.00181 kPa and 0.00183 kPa
273.66 K | 0.00181 kPa
278.15 K | 0.00278 kPa
278.16 K | 0.00276 kPa and 0.00277 kPa
283.15 K | 0.00436 kPa and 0.00437 kPa
288.15 K | 0.00676 kPa and 0.00678 kPa and 0.00675 kPa
293.15 K | 0.01031 kPa
293.16 K | 0.01032 kPa and 0.01035 kPa
298.15 K | 0.01545 kPa and 0.01546 kPa and 0.01547 kPa
303.15 K | 0.02273 kPa and 0.02278 kPa and 0.02281 kPa
308.16 K | 0.03304 kPa and 0.03307 kPa and 0.03309 kPa

[2]
Conditions | molar heat capacity at constant pressure [J/K/mol]
273.4 K, Large sample (1 g) DSC | 258.83
278.5 K, Large sample (1 g) DSC | 260.99
283.6 K, Large sample (1 g) DSC | 262.32
288.7 K, Large sample (1 g) DSC | 264.07
293.8 K, Large sample (1 g) DSC | 266.73
298.15 K, Drop calorimetry | 270.55
298.9 K, Large sample (1 g) DSC | 269.39
304 K, Large sample (1 g) DSC | 270.47
309.1 K, Large sample (1 g) DSC | 273.05
314.2 K, Large sample (1 g) DSC | 275.62
319.4 K, Large sample (1 g) DSC | 276.87
324.5 K, Large sample (1 g) DSC | 279.45
329.6 K, Large sample (1 g) DSC | 281.69
334.7 K, Large sample (1 g) DSC | 284.69
339.8 K, Large sample (1 g) DSC | 286.93
344.9 K, Large sample (1 g) DSC | 289.68
350 K, Large sample (1 g) DSC | 292
355.1 K, Large sample (1 g) DSC | 294.42

Conditions | molar enthalpy [kcal/mol]
[3] | 14.1

CC1=CC[C@H]2C[C@@H]1C2(C)C [(S)-2-pinene]
[1]
Conditions | vapor or sublimation pressure
238.19 K | 0.0053 kPa
243.2 K | 0.00874 kPa and 0.00875 kPa
253.19 K | 0.02209 kPa and 0.0221 kPa
258.2 K | 0.03413 kPa and 0.03415 kPa and 0.03412 kPa
263.19 K | 0.05172 kPa
268.19 K | 0.07688 kPa and 0.07689 kPa and 0.07691 kPa
273.65 K | 0.1164 kPa
273.66 K | 0.1164 kPa
278.16 K | 0.1615 kPa and 0.1614 kPa
283.15 K | 0.2288 kPa
288.15 K | 0.3195 kPa and 0.3196 kPa
293.15 K | 0.4403 kPa and 0.4404 kPa
298.15 K | 0.599 kPa and 0.5991 kPa
303.15 K | 0.8053 kPa
303.16 K | 0.8056 kPa and 0.8057 kPa
308.17 K | 1.071 kPa
308.18 K | 1.071 kPa

[2], Large sample (1 g) DSC
Conditions | molar heat capacity at constant pressure [J/K/mol]
273.4 K | 239.62
278.5 K | 242.37
283.6 K | 244.61
288.7 K | 247.11
293.8 K | 249.27
298.9 K | 253.09
304 K | 255.34
309.1 K | 257.83
314.2 K | 260.41
319.4 K | 262.57
324.5 K | 266.15
329.6 K | 268.97
334.7 K | 272.3
339.8 K | 274.88
344.9 K | 278.7
350 K | 282.11
355.1 K | 284.44
